# Measurements taken from patent publication EP0025288A1, “Derivatives of monic acid, processes for their preparation, compositions containing them and their preparation” (priority 1979, dated 1981).
# Assays:
# E coli NCTC 10418 = assay: MIC, veterinary bacteria; assay type: cell-based; conditions: veterinary bacteria (Table 2), read-out: MIC
# E coli E1 = assay: MIC, veterinary bacteria; assay type: cell-based; conditions: veterinary bacteria (Table 2), read-out: MIC
# S dublin S7 = assay: MIC, veterinary bacteria; assay type: cell-based; conditions: veterinary bacteria (Table 2), read-out: MIC
# S typhimurium S18 = assay: MIC, veterinary bacteria; assay type: cell-based; conditions: veterinary bacteria (Table 2), read-out: MIC
# Bord bronchiseptica BO8 = assay: MIC, veterinary bacteria; assay type: cell-based; conditions: veterinary bacteria (Table 2), read-out: MIC
# Bord bronchisptica BO9 = assay: MIC, veterinary bacteria; assay type: cell-based; conditions: veterinary bacteria (Table 2), read-out: MIC
# Past multocida PA1 = assay: MIC, veterinary bacteria; assay type: cell-based; conditions: veterinary bacteria (Table 2), read-out: MIC
# Past multocida PA2 = assay: MIC, veterinary bacteria; assay type: cell-based; conditions: veterinary bacteria (Table 2), read-out: MIC
# Past Haemolytica PA5 = assay: MIC, veterinary bacteria; assay type: cell-based; conditions: veterinary bacteria (Table 2), read-out: MIC
# [1] = system: Erysipelothrix rhusiopathiae NCTC 8163; assay: MIC, veterinary bacteria; assay type: cell-based; conditions: NCTC8163, veterinary bacteria (Table 2), read-out: MIC
# [2] = system: Staph aureus B4 (pen resis); assay: MIC, veterinary bacteria; assay type: cell-based; conditions: Staphylococcus aureus, veterinary bacteria (Table 2), read-out: MIC
# [3] = system: Staph aureus 152 (pen sens); assay: MIC, veterinary bacteria; assay type: cell-based; conditions: Staphylococcus aureus, veterinary bacteria (Table 2), read-out: MIC
# Staph aureus Oxford = assay: MIC, veterinary bacteria; assay type: cell-based; conditions: Staphylococcus aureus, veterinary bacteria (Table 2), read-out: MIC
# [4] = system: Strep suis (group D) SPS11; assay: MIC, veterinary bacteria; assay type: cell-based; conditions: veterinary bacteria (Table 2), read-out: MIC
# Strep uberis SPU1 = assay: MIC, veterinary bacteria; assay type: cell-based; conditions: veterinary bacteria (Table 2), read-out: MIC
# Strep dysgalaciae SPD1 = assay: MIC, veterinary bacteria; assay type: cell-based; conditions: veterinary bacteria (Table 2), read-out: MIC
# Strep agalactiae SPA1 = assay: MIC, veterinary bacteria; assay type: cell-based; conditions: veterinary bacteria (Table 2), read-out: MIC
# M suipneumoniae Str 11 = assay: MIC, anti-mycoplasmal, Friis' broth microtiter method; assay type: cell-based; conditions: read-out: in vitro MIC, BROTH
# [5] = system: M suipneumoniae J2206/183b; assay: as above; assay type: cell-based; conditions: read-out: in vitro MIC, BROTH
# M dispar H225 = assay: as above; assay type: cell-based; conditions: read-out: in vitro MIC, BROTH
# M dispar NCTC 10125 = assay: as above; assay type: cell-based; conditions: read-out: in vitro MIC, BROTH
# M pneumoniae 427a [6] = assay: as above; assay type: cell-based; conditions: read-out: in vitro MIC, BROTH
# M pneumoniae ATCC 15492 [7] = assay: as above; assay type: cell-based; conditions: read-out: in vitro MIC, BROTH
# M fermentans MWKL4 [8] = assay: as above; assay type: cell-based; conditions: read-out: in vitro MIC, BROTH
# M pulmonis JB [9] = assay: as above; assay type: cell-based; conditions: read-out: in vitro MIC, BROTH
# M pneumoniae 427a [10] = assay: MIC, anti-mycoplasmal, serial dilution in Friis' agar; assay type: cell-based; conditions: read-out: in vitro MIC, AGAR
# M pneumoniae ATCC 15492 [11] = assay: as above; assay type: cell-based; conditions: read-out: in vitro MIC, AGAR
# M bovis ATCC 25025 = assay: as above; assay type: cell-based; conditions: read-out: in vitro MIC, AGAR
# M bovis NCTC 10131 = assay: as above; assay type: cell-based; conditions: read-out: in vitro MIC, AGAR
# M fermentans MWKL4 [12] = assay: as above; assay type: cell-based; conditions: read-out: in vitro MIC, AGAR
# M pulmonis JB [13] = assay: as above; assay type: cell-based; conditions: read-out: in vitro MIC, AGAR
# M hyorhinis ATCC 23234 = assay: as above; assay type: cell-based; conditions: read-out: in vitro MIC, AGAR
# M hyosynoviae ATCC 25591 = assay: as above; assay type: cell-based; conditions: read-out: in vitro MIC, AGAR
# M arthritidis ATCC 14124 = assay: as above; assay type: cell-based; conditions: read-out: in vitro MIC, AGAR
# M gallisepticum S6 = assay: as above; assay type: cell-based; conditions: read-out: in vitro MIC, AGAR
# M synoviae ATCC 25204 = assay: as above; assay type: cell-based; conditions: read-out: in vitro MIC, AGAR
# M alkalescens NCTC 10135 = assay: as above; assay type: cell-based; conditions: read-out: in vitro MIC, AGAR
# [14] = system: M bovigenitalium ATCC 14173; assay: as above; assay type: cell-based; conditions: read-out: in vitro MIC, AGAR
# [15] = Serum binding by ultrafiltration; assay type: in vitro ADME, pig; conditions: pig, serum, compounds at 8 mcg/ml, microbiological assay (B. subtilis ATCC 6633), read-out: % bound to pig serum (converted)
# Description: Serum binding was assessed by ultrafiltration of procine serum containing compounds at 8 mcg/ml, and through an Amicon CF50A ultrafiltration cone. Separation of ultrafiltrate was achieved by centrifugation.
# [16] = system: Corynebacterium pyogenes CY1; assay: MIC, veterinary bacteria; assay type: cell-based; conditions: veterinary bacteria (Table 2), read-out: MIC
Structure (SMILES),MIC (E coli NCTC 10418),MIC (E coli E1),MIC (S dublin S7),MIC (S typhimurium S18),MIC (Bord bronchiseptica BO8),MIC (Bord bronchisptica BO9),MIC (Past multocida PA1),MIC (Past multocida PA2),MIC (Past Haemolytica PA5),MIC [1],MIC [2],MIC [3],MIC (Staph aureus Oxford),MIC [4],MIC (Strep uberis SPU1),MIC (Strep dysgalaciae SPD1),MIC (Strep agalactiae SPA1),MIC (M suipneumoniae Str 11),MIC [5],MIC (M dispar H225),also measured
"CC(=O)CCCOC(=O)C=C(C)CC1OCC(CC2OC2C(C)C(C)O)C(O)C1O (centres unmarked) [Example 2, 3-Acetvlpropvl Monate A]",> 80 mg/L,> 80 mg/L,> 80 mg/L,> 80 mg/L,40 mg/L,5 mg/L,0.312 mg/L,0.039 mg/L,5 mg/L,80 mg/L,1.25 mg/L,1.25 mg/L,1.25 mg/L,10 mg/L,0.312 mg/L,1.25 mg/L,2.5 mg/L,0.156 mg/L,0.312 mg/L,≤ 0.02 mg/L,MIC (M dispar NCTC 10125): ≤ 0.02 mg/L; MIC (M pneumoniae 427a [6]): 0.625 mg/L; MIC (M pneumoniae ATCC 15492 [7]): 0.312 mg/L; MIC (M fermentans MWKL4 [8]): < 0.02 mg/L; MIC (M pulmonis JB [9]): < 0.02 mg/L; MIC (M pneumoniae 427a [10]): 0.312 mg/L; MIC (M pneumoniae ATCC 15492 [11]): 0.312 mg/L; MIC (M bovis ATCC 25025): < 0.02 mg/L; MIC (M bovis NCTC 10131): < 0.02 mg/L; MIC (M fermentans MWKL4 [12]): ≤ 0.02 mg/L; MIC (M pulmonis JB [13]): ≤ 0.02 mg/L; MIC (M hyorhinis ATCC 23234): 0.312 mg/L; MIC (M hyosynoviae ATCC 25591): 0.078 mg/L; MIC (M arthritidis ATCC 14124): 2.5 mg/L; MIC (M gallisepticum S6): 2.5 mg/L; MIC (M synoviae ATCC 25204): < 0.02 mg/L; MIC (M alkalescens NCTC 10135): < 0.02 mg/L; MIC [14]: ≤ 0.02 mg/L; fraction unbound [15]: 0.76
"CC(=O)COC(=O)C=C(C)CC1OCC(CC2OC2C(C)C(C)O)C(O)C1O (centres unmarked) [Example 1, Acetvlmethvl Monate A]",> 80 mg/L,> 80 mg/L,> 80 mg/L,> 80 mg/L,> 80 mg/L,40 mg/L,0.625 mg/L,0.312 mg/L,5 mg/L,> 80 mg/L,2.5 mg/L,2.5 mg/L,2.5 mg/L,40 mg/L,2.5 mg/L,5 mg/L,5 mg/L,0.625 mg/L,1.25 mg/L,0.156 mg/L,MIC [16]: > 80 mg/L; MIC (M dispar NCTC 10125): 0.156 mg/L; MIC (M pneumoniae 427a [6]): > 10 mg/L; MIC (M pneumoniae ATCC 15492 [7]): > 10 mg/L; MIC (M fermentans MWKL4 [8]): 0.078 mg/L; MIC (M pulmonis JB [9]): 0.156 mg/L; MIC (M pneumoniae 427a [10]): 10 mg/L; MIC (M pneumoniae ATCC 15492 [11]): > 10 mg/L; MIC (M fermentans MWKL4 [12]): 0.312 mg/L; MIC (M pulmonis JB [13]): 0.156 mg/L; MIC (M hyorhinis ATCC 23234): 2.5 mg/L; MIC (M hyosynoviae ATCC 25591): 1.25 mg/L; MIC (M arthritidis ATCC 14124): > 10 mg/L; MIC (M gallisepticum S6): > 10 mg/L; MIC (M synoviae ATCC 25204): < 0.02 mg/L; MIC (M alkalescens NCTC 10135): 0.039 mg/L; MIC [14]: 0.078 mg/L; fraction unbound [15]: 0.772
